Drawing on patent US9487510B2, “Substituted heterocyclic acetamides as kappa opioid receptor (KOR) agonists” (Dr. Reddy's Laboratories Ltd., priority 2012, dated 2016), this text covers EC50 for 11 compounds.

SMILES strings stand for the structures. Some results are limits rather than exact numbers.

The experiment deals with human KOR receptor (Homo sapiens, UniProt P41145). Description: IP-One HTRF assay, potency of KOR agonists, dose-response in transiently transfected COS-7 cells. In kind it is cell-based.
human KOR receptor, sequence (P41145 whole entry): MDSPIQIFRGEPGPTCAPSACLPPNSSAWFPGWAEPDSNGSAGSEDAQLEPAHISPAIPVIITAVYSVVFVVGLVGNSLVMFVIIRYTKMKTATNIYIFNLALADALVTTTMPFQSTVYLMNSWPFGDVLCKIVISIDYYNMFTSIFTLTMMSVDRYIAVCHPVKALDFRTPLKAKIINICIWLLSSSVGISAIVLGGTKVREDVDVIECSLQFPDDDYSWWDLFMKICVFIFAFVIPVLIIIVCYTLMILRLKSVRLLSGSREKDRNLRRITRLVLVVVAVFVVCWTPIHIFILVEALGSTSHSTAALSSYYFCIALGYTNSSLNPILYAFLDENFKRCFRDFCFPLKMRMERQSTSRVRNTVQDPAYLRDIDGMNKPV
By EC50 is commonly meant the midpoint of the concentration-response curve. Low values mean a more potent agent, high ones a less potent agent. `CN(C(=O)Cc1ccc2c(c1)NS(=O)(=O)C2)[C@H](CN1CC[C@H](O)C1)c1cccc(C(=O)NCC(F)(F)F)c1` [Example 195, 3-((S)-1-(2-(2,2-dioxido-1,3-dihydrobenzo[c]isothiazol-6-yl)-N-methylacetamido)-2-((S)-3-hydroxypyrrolidin-1-yl)ethyl)-N-(2,2,2-trifluoroethyl)benzamide] registered an EC50 of at most 50 nM.
The figure for `CN(C(=O)Cc1ccc2ncc(=O)[nH]c2c1)[C@H](CN1CC[C@H](O)C1)c1cccc(C(=O)NCC(F)(F)F)c1` [Example 196, 3-((S)-2-((S)-3-hydroxypyrrolidin-1-yl)-1-(N-methyl-2-(3-oxo-3,4-dihydroquinoxalin-6-yl)acetamido)ethyl)-N-(2,2,2-trifluoroethyl)benzamide] is at most 50 nM.
The figure for `CN(C(=O)Cc1ccc2c(c1)NC(=O)C2)[C@H](CN1CC[C@H](O)C1)c1cc(F)cc(C#N)c1` [Example 197, N-((S)-1-(3-cyano-5-fluorophenyl)-2-((S)-3-hydroxypyrrolidin-1-yl)ethyl)-N-methyl-2-(2-oxoindolin-6-yl)acetamide] is 51 to 100 nM; for `CN(C(=O)Cc1ccc2c(c1)NC(=O)C2)[C@H](CN1CC[C@H](O)C1)c1cccc(-c2ncc[nH]2)c1` [Example 198, N-((S)-1-(3-(1H-imidazol-2-yl)phenyl)-2-((S)-3-hydroxypyrrolidin-1-yl)ethyl)-N-methyl-2-(2-oxoindolin-6-yl)acetamide 2,2,2-trifluoroacetate] it is at most 50 nM.
In the case of `CN(C(=O)Cc1ccc2c(c1)NS(=O)(=O)C2)[C@H](CN1CC[C@H](O)C1)c1cc(F)cc(C#N)c1` [Example 199, N-((S)-1-(3-cyano-5-fluorophenyl)-2-((S)-3-hydroxypyrrolidin-1-yl)ethyl)-2-(2,2-dioxido-1,3-dihydrobenzo[c]isothiazol-6-yl)-N-methylacetamide] it was at most 50 nM.
Compound `CN(C(=O)Cc1ccc2ncc(=O)[nH]c2c1)[C@H](CN1CC[C@H](O)C1)c1cc(F)cc(C#N)c1` [Example 200, N-((S)-1-(3-cyano-5-fluorophenyl)-2-((S)-3-hydroxypyrrolidin-1-yl)ethyl)-N-methyl-2-(3-oxo-3,4-dihydroquinoxalin-6-yl)acetamide] returned an EC50 of at most 50 nM.
The figure for `C#Cc1cccc([C@@H](CN2CC[C@H](O)C2)N(C)C(=O)Cc2ccc3c(c2)NC(=O)CS3(=O)=O)c1` [Example 201, 2-(1,1-dioxido-3-oxo-3,4-dihydro-2H-benzo[b][1,4]thiazin-6-yl)-N-((S)-1-(3-ethynylphenyl)-2-((S)-3-hydroxypyrrolidin-1-yl)ethyl)-N-methylacetamide] is at most 50 nM.
For the compound `CN(C(=O)Cc1ccc2c(c1)NS(=O)(=O)C2)[C@H](CN1CC[C@H](O)C1)c1cccc(-c2ncc[nH]2)c1` [Example 202, N-((S)-1-(3-(1H-imidazol-2-yl)phenyl)-2-((S)-3-hydroxypyrrolidin-1-yl)ethyl)-2-(2,2-dioxido-1,3-dihydrobenzo[c]isothiazol-6-yl)-N-methylacetamide], the EC50 is 51 to 100 nM.
In the case of `CN(C(=O)Cc1ccc2c(c1)NS(=O)(=O)C2)[C@H](CN1CC[C@H](O)C1)c1cccc(C#N)c1` [Example 203, N-((S)-1-(3-cyanophenyl)-2-((S)-3-hydroxypyrrolidin-1-yl)ethyl)-2-(2,2-dioxido-1,3-dihydrobenzo[c]isothiazol-6-yl)-N-methylacetamide] it was at most 50 nM.
The figure for `CCC#Cc1cccc([C@@H](CN2CC[C@H](O)C2)N(C)C(=O)Cc2ccc3c(c2)NC(=O)C3)c1` [Example 204, N-((S)-1-(3-(but-1-yn-1-yl)phenyl)-2-((S)-3-hydroxypyrrolidin-1-yl)ethyl)-N-methyl-2-(2-oxoindolin-6-yl)acetamide] is at most 50 nM; for `CCC#Cc1cccc([C@@H](CN2CC[C@H](O)C2)N(C)C(=O)Cc2ccc3sc(=O)[nH]c3c2)c1` [Example 205, N-((S)-1-(3-(but-1-yn-1-yl)phenyl)-2-((S)-3-hydroxypyrrolidin-1-yl)ethyl)-N-methyl-2-(2-oxo-2,3-dihydrobenzo[d]thiazol-5-yl)acetamide] it is at most 50 nM.
